Data taken from US20060069132A1, “Azolecarboxamide herbicides” (priority 2004, published 2006).

What was measured:
[1] = test system: giant foxtail; experiment: Test B pre-/postemergence herbicide test; format: in vivo, Setaria faberi
In short: (§1)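 Test chemicals in a non-phytotoxic solvent mixture with surfactant were applied preemergence to seeded species and postemergence to plants 2-18 cm tall (1- to 4-leaf stage); rice and barnyardgrass were also tested in a flooded paddy at the 2-leaf stage. Visual rating versus controls after 13-15 days in greenhouse, scale 0 (no effect) to 100 (complete control).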

[2] = test system: morningglory; experiment: Test A pre-/postemergence herbicide test; format: in vivo, Ipomoea spp.
In short: (§2)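 Seeds sown in sandy loam received a preemergence directed soil spray of compound in non-phytotoxic solvent with surfactant; postemergence plants (2–10 cm, one- to two-leaf stage) were sprayed to runoff at the same time. After ~10 days in greenhouse, injury was rated visually versus untreated controls (0 = no effect, 100 = complete control).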

[3] = test system: wild oat; experiment: Test B postemergence herbicide test; format: in vivo, Avena fatua; settings: scale 0 (no effect) to 100 (complete control)
In short: (§3)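 Each value is a visual 0–100 response rating taken against controls 13 to 15 days after treatment in the greenhouse. Plants received formulated chemical postemergence at the 1- to 4-leaf stage or, in flooded paddy, at the 2-leaf stage.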

[4] = test system: lambsquarters; experiment: Test B pre-/postemergence herbicide test; format: in vivo, Chenopodium album
In short: as §1

[5] = test system: blackgrass; experiment: Test B postemergence herbicide test; format: in vivo, Alopecurus myosuroides; settings: scale 0 (no effect) to 100 (complete control)
In short: (§4)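 Greenhouse test; postemergence application to plants at 1–4 leaves (2–18 cm); paddy species at 2 leaves; evaluated visually vs controls at 13–15 days; scale 0–100 (100 = complete control).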

[6] = test system: ducksalad; experiment: Test B flooded paddy test; format: in vivo, Heteranthera limosa; settings: 1000 g ai/ha, visual rating, scale 0 to 100 (0 no effect, 100 complete control), 13 to 15 days
In short: as §4

[7] = test system: giant foxtail; experiment: Test A pre-/postemergence herbicide test; format: in vivo, Setaria faberi
In short: as §2

[8] = test system: large crabgrass; experiment: Test A pre-/postemergence herbicide test; format: in vivo, Digitaria sanguinalis
In short: as §2

[9] = test system: barnyardgrass; experiment: Test B flooded paddy test; format: in vivo, Echinochloa crus-galli; settings: 1000 g ai/ha, visual rating, scale 0 to 100 (0 no effect, 100 complete control), 13 to 15 days
In short: as §4

[10] = test system: velvetleaf; experiment: Test A pre-/postemergence herbicide test; format: in vivo, Abutilon theophrasti
In short: as §2

[11] = test system: large crabgrass; experiment: Test B pre-/postemergence herbicide test; format: in vivo, Digitaria sanguinalis
In short: as §1

[12] = test system: redroot pigweed; experiment: Test A pre-/postemergence herbicide test; format: in vivo, Amaranthus retroflexus
In short: as §2

[13] = test system: cocklebur; experiment: Test B pre-/postemergence herbicide test; format: in vivo, Xanthium strumarium
In short: (§5)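 Greenhouse pot assay with simultaneous preemergence (treated seed) and postemergence (2–18 cm seedlings) applications of surfactant-containing, non-phytotoxic solvent formulations. Response scored visually 13–15 days later on a 0–100 scale, 100 meaning complete control.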

[14] = test system: rice; experiment: Test B flooded paddy test; format: in vivo, Oryza sativa; settings: 1000 g ai/ha, visual rating, scale 0 to 100 (0 no effect, 100 complete control), 13 to 15 days
In short: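 Paddy species grown to the 2-leaf stage under flooding; blackgrass sprayed postemergence at 2–18 cm (1- to 4-leaf stage). Plants kept in a greenhouse for 13 to 15 days, then visually rated against controls on 0 (no effect) to 100 (complete control).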

[15] = test system: velvetleaf; experiment: Test B pre-/postemergence herbicide test; format: in vivo, Abutilon theophrasti
In short: as §1

[16] = test system: pigweed; experiment: Test B pre-/postemergence herbicide test; format: in vivo, Amaranthus retroflexus
In short: as §1

[17] = test system: Surinam grass; experiment: Test B pre-/postemergence herbicide test; format: in vivo, Urochloa decumbens
In short: as §1

[18] = test system: corn; experiment: Test B pre-/postemergence herbicide test; format: in vivo, Zea mays
In short: as §1

[19] = test system: barnyardgrass; experiment: Test B pre-/postemergence herbicide test; format: in vivo, Echinochloa crus-galli
In short: as §5

[20] = test system: wheat; experiment: Test B postemergence herbicide test; format: in vivo, Triticum aestivum; parameters: key to Wheat plant response rating: 0 = no effect, 100 = complete control; settings: scale 0 (no effect) to 100 (complete control)
In short: as §3

[21] = test system: small flower umbrella sedge; experiment: Test B flooded paddy test; format: in vivo, Cyperus difformis; settings: 1000 g ai/ha, visual rating, scale 0 to 100 (0 no effect, 100 complete control), 13 to 15 days
In short: as §4

[22] = test system: barnyardgrass; experiment: Test A pre-/postemergence herbicide test; format: in vivo, Echinochloa crus-galli
In short: as §2

[23] = test system: morningglory; experiment: Test B pre-/postemergence herbicide test; format: in vivo, Ipomoea coccinea
In short: as §5

[24] = 500 g ai/ha, visual rating 0-100, 0 no effect, 100 complete control, preemergence
[25] = Postemergence, 500 g ai/ha, visual rating after 13 to 15 days, scale 0 (no effect) to 100 (complete control)
[26] = postemergence, 125 g ai/ha, visual rating, scale 0 (no effect) to 100 (complete control)
[27] = preemergence, 125 g ai/ha, 0 to 100 scale, 0 is no effect, 100 is complete control
[28] = Postemergence, 125 g ai/ha, 0 to 100 scale, 0 no effect, 100 complete control
[29] = Postemergence, 500 g ai/ha, 0 to 100 scale, 0 no effect, 100 complete control
[30] = Preemergence, 500 g ai/ha, visual rating, 0 to 100 scale (0 no effect, 100 complete control)
[31] = preemergence, 125 g ai/ha, visual injury, 0 to 100 scale (0 no effect, 100 complete control)
[32] = Postemergence, 500 g ai/ha, visual rating after 13 to 15 days
[33] = postemergence, 125 g ai/ha, visual rating

For CC(=NO)c1cccc(NC(=O)c2cc(C(C)(C)C)nn2C(C)C)c1 [Compound 110], the “Plant response rating, Foxtail, Giant” value [1, 24] was 20, the “Plant response rating, Foxtail, Giant” value [1, 25] was 10 and the “Foxtail, Giant plant response rating” value [1, 26] was 10. The “Plant response rating, Foxtail, Giant” value [1, 27] was 10, the “Morningglory plant response rating” value [2, 28] was 0 and the “Morningglory plant response rating” value [2, 29] was 10. The “Morningglory plant response rating” value [2, 30] was 20, the “Morningglory plant response rating” value [2, 31] was 10 and the “Plant response rating, Oat, Wild” value [3, 32] was 0. For the same compound, the “Oat, Wild plant response rating” value [3, 33] was 0, the “Plant response rating, Lambsquarters” value [4, 24] was 90 and the “Plant response rating, Lambsquarters” value [4, 25] was 60. For the same compound, the “Lambsquarters plant response rating” value [4, 26] was 40, the “Plant response rating, Lambsquarters” value [4, 27] was 20 and the “Plant response rating, Blackgrass” value [5, 32] was 0. The “Blackgrass plant response rating” value [5, 33] was 0, the “Ducksalad plant response rating” value [6] was 0 and the “Foxtail, Giant plant response rating” value [7, 28] was 20. For the same compound, the “Foxtail, Giant plant response rating” value [7, 29] was 25, the “Foxtail, Giant plant response rating” value [7, 30] was 0 and the “Foxtail, Giant plant response rating” value [7, 31] was 0. The “Crabgrass, Large plant response rating” value [8, 28] was 25, the “Crabgrass, Large plant response rating” value [8, 29] was 30 and the “Crabgrass, Large plant response rating” value [8, 30] was 20. For the same compound, the “Crabgrass, Large plant response rating” value [8, 31] was 15, the “Barnyardgrass plant response rating” value [9] was 30 and the “Velvetleaf plant response rating” value [10, 28] was 10. The “Velvetleaf plant response rating” value [10, 29] was 10, the “Velvetleaf plant response rating” value [10, 30] was 10 and the “Velvetleaf plant response rating” value [10, 31] was 10. For the same compound, the “Plant response rating, Crabgrass, Large” value [11, 24] was 100, the “Plant response rating, Crabgrass, Large” value [11, 25] was 20 and the “Crabgrass, Large plant response rating” value [11, 26] was 10. The “Plant response rating, Crabgrass, Large” value [11, 27] was 80, the “Pigweed plant response rating” value [12, 28] was 40 and the “Pigweed plant response rating” value [12, 29] was 50. The “Pigweed plant response rating” value [12, 30] was 10, the “Pigweed plant response rating” value [12, 31] was 10 and the “Plant response rating, Cocklebur” value [13, 24] was 10. The “Plant response rating, Cocklebur” value [13, 25] was 40, the “Cocklebur plant response rating” value [13, 26] was 10 and the “Plant response rating, Cocklebur” value [13, 27] was 0. The “Rice plant response rating” value [14] was 20, the “Plant response rating, Velvetleaf” value [15, 24] was 10 and the “Plant response rating, Velvetleaf” value [15, 25] was 40. For the same compound, the “Velvetleaf plant response rating” value [15, 26] was 30, the “Plant response rating, Velvetleaf” value [15, 27] was 0 and the “Plant response rating, Pigweed” value [16, 24] was 10. For the same compound, the “Plant response rating, Pigweed” value [16, 25] was 50, the “Pigweed plant response rating” value [16, 26] was 20 and the “Plant response rating, Pigweed” value [16, 27] was 0. For the same compound, the “Plant response rating, Surinam Grass” value [17, 24] was 10, the “Plant response rating, Surinam Grass” value [17, 25] was 30 and the “Surinam Grass plant response rating” value [17, 26] was 20. For the same compound, the “Plant response rating, Surinam Grass” value [17, 27] was 10, the “Plant response rating, Corn” value [18, 24] was 0 and the “Plant response rating, Corn” value [18, 25] was 20. The “Corn plant response rating” value [18, 26] was 10, the “Plant response rating, Corn” value [18, 27] was 0 and the “Plant response rating, Barnyardgrass” value [19, 24] was 10. For the same compound, the “Plant response rating, Barnyardgrass” value [19, 25] was 20, the “Barnyardgrass plant response rating” value [19, 26] was 10 and the “Plant response rating, Barnyardgrass” value [19, 27] was 10. The “Plant response rating, Wheat” value [20, 32] was 30, the “Wheat plant response rating” value [20, 33] was 10 and the “Sedge, Umbrella plant response rating” value [21] was 20. For the same compound, the “Barnyardgrass plant response rating” value [22, 28] was 30, the “Barnyardgrass plant response rating” value [22, 29] was 30 and the “Barnyardgrass plant response rating” value [22, 30] was 5. For the same compound, the “Barnyardgrass plant response rating” value [22, 31] was 10, the “Plant response rating, Morningglory” value [23, 24] was 60 and the “Plant response rating, Morningglory” value [23, 25] was 30. For the same compound, the “Morningglory plant response rating” value [23, 26] was 20 and the “Plant response rating, Morningglory” value [23, 27] was 20.
